The data set in a line: RP, Waters ACQUITY UPLC BEH C18, 38 °C, 0.24 mL/min; A: water + 0.1% formic acid, pH 3; B: acetonitrile + 0.1% formic acid, pH 3; gradient (min/%B) 0/0 0.25/0 0.4/9 0.8/17 1.9/100 2.1/100 2.11/0 3/0. The conditions noted are these: stereoisomer not certain.

Where a name gives a salt, the structure may show the parent alone.

Turning to `C[C@@H](O)[C@H](N)CC(=O)O` [L-beta-homothreonine], the LC retention time amounted to 0.19 min. Then `O=c1c(-c2ccc(O)cc2)coc2cc(OC3OC(CO)C(O)C(O)C3O)ccc12` (stereo not given) [Daidzin], with 1.34 min; and `Nc1ccccc1` [Aniline], with 0.42 min; and `Nc1ccn(C2OC3COP(=O)(O)OC3C2O)c(=O)n1` (stereo not given) [Cytidine-3',5'-cyclicmonophosphate], with 0.67 min.

Regarding `CN1C2CCC1CC(=O)C2` [Tropinone], the LC retention time worked out at 0.24 min. In the case of `CC(=O)OC[C@H](N)C(=O)O` [O-acetyl-L-serine hydrochloride] it was 0.19 min; in that of `CC(=O)NCCCCN` [N-acetyl putrescine hydrochloride], 0.23 min; in that of `NCCCNCCCCNCCCN` [Spermine], 0.14 min.

On to `O=c1ccc2ccc(O)c(O)c2o1` [Daphnetin], for which the LC retention time is 1.34 min.

As for `Nc1ncnc2nc[nH]c12` [Adenine], the LC retention time came to 0.32 min. As to `NCCCCCN` [Cadaverine], the LC retention time is 0.14 min. In the case of `NCC(O)CCC(N)C(=O)O` (racemic) [DL-5-Hydroxylysine  hydrochloride] it was 0.14 min; in that of `NC(CCC(=O)NC(CS)C(=O)NCC(=O)O)C(=O)O` [L-Glutathione (reduced form)], 0.95 min; in that of `CC1OC(O)C(O)C(O)C1O` (stereo not given), 0.21 min. On to `CC(O)(CC(=O)O)CC(=O)O` [3-Hydroxy-3-methylglutarate], for which the LC retention time came out at 0.68 min.

`CC(=O)OC(CC(=O)O)C[N+](C)(C)C` [O-Acety-L-carnitine hydrochloride]: the LC retention time was 0.33 min. In the case of `O=C(O)c1ccc(O)cc1` [4-Hydroxybenzoate] it was 1.25 min; in that of `O=c1ccn(C2OC(COP(=O)(O)O)C(O)C2O)c(=O)[nH]1` (stereo not given) [Uridine-5'-monophosphate], 0.26 min. Then `c1cnc2c(c1)ccc1cccnc12` [1,10-Phenanthroline monohydrate], with 1.18 min; and `N[C@H]1C(O)O[C@H](CO)[C@@H](O)[C@@H]1O` (stereo partly drawn) [D-(+)-Glucosamine hydrochloride], with 0.15 min; and `O=P(O)(O)OC1C(O)C(O)C(OP(=O)(O)O)C(O)C1O` (stereo not given), with 2.13 min. In the case of `Nc1ccn(C2OC(CO)C(OP(=O)(O)O)C2O)c(=O)n1` (stereo not given) [Cytidine-3'-monophosphate] it was 0.36 min.

Consider `O=c1ccn(C2CC(O)C(COP(=O)(O)O)O2)c(=O)[nH]1` (stereo not given) [2'-Deoxyuridine-5'-monophosphate disodium salt], for which the LC retention time is 0.4 min.

For the compound `CN(C)C=O` [N,N-Dimethylformamide(DMF)], the LC retention time was 0.51 min. Then `NC(CCCC(N)C(=O)O)C(=O)O` (racemic) [DL-alpha,epsilon-Diaminopimelic acid], with 0.15 min; and `C[C@H](N)C(=O)O` [L-Alanine], with 0.17 min; and `CC(O)CN` (stereo not drawn) [R-(-)-1-Amino-2-propanol], with 0.17 min. `Cn1c(=O)c2c(ncn2C)n(C)c1=O` [Caffeine,Anhydrous]: the LC retention time was 1.24 min. In the case of `CNC1(C)C2CCC(C2)C1(C)C` (stereo not given) [Mecamylamine hydrochloride] it was 1.35 min; in that of `O=C(O)Cc1ccc(O)c(O)c1` [3,4-dihydroxyphenylacetic acid], 1.16 min. Then `O=C(O)CCCCC1CCSS1` (racemic) [(+-)-alpha-Lipoic acid], with 1.74 min; and `O=C(O)C(=O)Cc1ccccc1` [Sodium phenylpyruvate], with 1.36 min; and `CC(CCC(=O)O)C(=O)O` (stereo not given) [2-Methylglutaric Acid], with 1.16 min.

For the compound `CC(C)(COP(=O)(O)OP(=O)(O)OCC1OC(n2cnc3c(N)ncnc32)C(O)C1O)C(O)C(=O)NCCC(=O)NCCS` (stereo not given) [3'-Dephosphocoenzyme A], the LC retention time was determined as 1.12 min. In the case of `CSCC[C@H](N)C(=O)O` [L-Methionine] it was 0.31 min; in that of `OCCN(CCO)CCO` [2,2',2''-Nitrilotriethanol], 0.17 min; in that of `CCCC(O)C(=O)O` (racemic) [DL-2-Hydroxyvaleric acid sodium salt hydrate], 1.14 min.

Consider `CC1OC(OCC2OC(Oc3c(-c4ccc(O)cc4)oc4cc(O)cc(O)c4c3=O)C(O)C(O)C2O)C(O)C(O)C1O` (stereo not given) [kaempferol-3-O-rutinoside], for which the LC retention time came to 1.42 min.

As to `OCC1OC(Oc2cc(O)cc(C=Cc3ccc(O)c(O)c3)c2)C(O)C(O)C1O` (stereo not given) [E-3,4,5'-trihydroxy-3'-glucopyranosylstilbene], the LC retention time was 1.33 min.

Turning to `NCCCCN=C(N)N` [Agmatine sulfate salt], the LC retention time was 0.15 min. Then `CCCC[C@H](N)C(=O)O` [L-Norleucine], with 0.57 min.

As to `O=P(O)(O)OCC(O)CO` (racemic) [rac-Glycerol 3-phosphoate disodium salt hexahydrate], the LC retention time was found to be 0.16 min.

In the case of `N[C@@H](Cc1ccc(O)cc1)C(=O)O` [L-Tyrosine], the LC retention time stood at 0.61 min. On to `Nc1ccccc1C(=O)O` [Anthranilic acid], for which the LC retention time was 1.39 min. As to `CC1OC(OCC2OC(Oc3c(-c4ccccc4O)oc4cc(O)cc(O)c4c3=O)C(O)C(O)C2O)C(O)C(O)C1O` (stereo not given) [Datiscin], the LC retention time turned out to be 1.4 min. Then `O=c1c(OC2OCC(O)C(O)C2O)c(-c2ccc(O)c(O)c2)oc2cc(O)cc(O)c12` [Quercetin-3-D-xyloside], with 1.43 min; and `NCCCCN` [1,4-Diaminobutane], with 0.14 min; and `COc1ccc(-c2cc(=O)c3c(O)cc(OC4OC(COC5OC(C)C(O)C(O)C5O)C(O)C(O)C4O)cc3o2)cc1` (stereo not given) [Linarin], with 1.54 min. In the case of `NC(=O)CC[C@H](N)C(=O)O` [L-Glutamine] it was 0.17 min; in that of `COc1cc(-c2oc3cc(O)cc(O)c3c(=O)c2OC2OC(CO)C(O)C(O)C2O)ccc1O` (stereo not given) [isorhamnetin-3-O-glucoside], 1.45 min.

For the origin of these results see the RepoRT retention time repository (doi:10.1093/pcp/pcn183).
